The values that follow come from patent publication US9296704B2, “Substituted pyrimidines as protein kinase inhibitors” (CELGENE AVILOMICS RESEARCH, INC., priority 2007, dated 2016).

One assay addresses ErbB4 (Homo sapiens, UniProt Q15303). The experiment in a line: Z'-LYTE biochemical assay, ErbB4 kinase inhibition. A digest of the protocol:
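Fluorescence-based coupled-enzyme Z′-LYTE format: kinase phosphorylation of a peptide substrate is read by differential protease cleavage of phosphorylated versus non-phosphorylated peptide.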

In the next assay the target is T1, EGFR wild type (Homo sapiens, UniProt P00533).
T1 construct: Amino acids 696 to 1022 of the EGFR-WT kinase domain; six-histidine tag (TEV-cleavable) (C); made in house; host or cells: SF21 insect cells (baculovirus; P1 stocks in SF9)
The assay is described as follows: Mass spectrometry for EGFR wild type (covalent modification). The assay is classed as binding. The settings on record: 10-fold excess of compound, 1 hr and 3 hrs, MALDI. As for the experimental part:
Amino acids 696 to 1022 of the EGFR-WT kinase domain (NM_005228, NP_005219.2) was subcloned into the NcoI and HindIII sites of the pFastHTa vector (Invitrogen, Carlsbad, Calif.). To make the EGFR-mutant protein, the cysteine at position 797 was changed to a serine using the Stratagene QuikChange kit (Stratagene, Cedar Creek, Tex.), according to manufacturer's instructions.
EGFR wild type and EGFR mutant (C797S) was incubated with 10-fold excess of compound I-1 for 1 hr and 3 hrs. 1 ul aliquots of the samples (total volume 5-8 ul) were diluted with 10 ul of 0.1% TFA prior to micro C4 ZipTipping directly onto the MALDI target using Sinapinic acid as the desorption matrix (10 mg/ml in 0.1% TFA:Acetonitrile 50:50). […] (See FIG. 8).

In assay [1] the test system is EGFR (ErbB1) in A431 human epidermoid carcinoma cells. The assay is described as follows: Washout experiment for EGFR activity in A431 cells. The class given is cell-based. As for the experimental part: A431 human epidermoid carcinoma cells were grown in 6-well plates to 90% confluence and then incubated in serum-free media for 18 hr. Duplicate sets of cells were treated with 1 μM designated compound for 1 hr. One set of cells was then stimulated with 100 ng/ml EGF for 5 min, and extracts were made as described. The other set of cells was washed free of the compound with warmed compound-free medium, incubated for 2 hr, washed again, incubated another 2 hr, washed again, and then incubated another 2 hr washed again and incubated for additional 2 hr and then stimulated with EGF.

The target in the next assay is T2, ErbB4 kinase domain (Homo sapiens, UniProt Q15303).
T2 construct: ErbB4 kinase domain (Upstate) was incubated with compound; purchased Upstate
The experiment in a line: Mass spectrometry for ErbB4 (covalent modification). The assay is classed as binding. The settings on record: 10-fold excess of compound, 90 minutes, MALDI. The method, then:
ErbB4 kinase domain (Upstate) was incubated with compound for 90 minutes at 10-fold excess of compound I-1 to protein. 1 ul aliquots of the samples (total volume of 4.24 ul) were diluted with 10 ul of 0.1% TFA prior to micro C4 ZipTipping directly onto the MALDI target using Sinapinic acid as the desorption matrix (10 mg/ml in 0.1% TFA:Acetonitrile 50:50). For intact protein mass measurement the instrument was set in Linear mode using a pulsed extraction setting of 16,952 for the myoglobin standard used to calibrate the instrument
Intact ErbB4 protein occurs at MH+ of 35850 with corresponding sinapinic (matrix) adducts occurring about 200 Da higher. A stochiometric incorporation of the compound I-1 (Mw of 410 Da) produced a new mass peak which is approximately 410 Da higher (MH+ of 36260).

For a further assay, the target named is T3, TEC kinase (Homo sapiens, UniProt P42680).
T3 construct: purchased Invitrogen
T3 sequence (P42680 1-631): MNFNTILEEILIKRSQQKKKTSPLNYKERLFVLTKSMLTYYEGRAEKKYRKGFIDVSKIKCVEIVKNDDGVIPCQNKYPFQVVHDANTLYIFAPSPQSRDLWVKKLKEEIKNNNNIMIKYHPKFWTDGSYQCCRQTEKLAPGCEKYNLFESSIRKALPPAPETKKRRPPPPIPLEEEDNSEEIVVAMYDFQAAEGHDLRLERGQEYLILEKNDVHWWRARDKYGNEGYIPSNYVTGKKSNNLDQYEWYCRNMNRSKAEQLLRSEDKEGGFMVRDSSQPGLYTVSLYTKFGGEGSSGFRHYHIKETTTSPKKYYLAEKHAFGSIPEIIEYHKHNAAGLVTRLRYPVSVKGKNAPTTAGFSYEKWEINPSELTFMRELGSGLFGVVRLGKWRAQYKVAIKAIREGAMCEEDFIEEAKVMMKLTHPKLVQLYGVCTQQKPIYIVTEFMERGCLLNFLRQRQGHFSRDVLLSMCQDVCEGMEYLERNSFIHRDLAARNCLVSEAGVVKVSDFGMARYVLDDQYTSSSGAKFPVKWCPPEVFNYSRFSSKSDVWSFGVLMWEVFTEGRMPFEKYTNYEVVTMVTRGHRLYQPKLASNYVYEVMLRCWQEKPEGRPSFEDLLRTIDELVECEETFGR
The assay is described as follows: Mass spectrometry for TEC kinase (tryptic digest). The assay is classed as binding, homo sapien. The settings on record: 10× excess, 3 hrs, MALDI. As for the experimental part:
TEC kinase (45 pmols; Invitrogen) was incubated with (I-13) (450 pmols) for 3 hrs at 10× access prior to tryptic digestion. Iodoacetamide was used as the alkylating agent after compound incubation. […] For tryptic digests a 5 ul aliquot (7.5 pmols) was diluted with 15 ul of 0.1% TFA prior to micro C18 Zip Tipping directly onto the MALDI target using alpha cyano-4-hydroxy cinnamic acid as the matrix (5 mg/ml in 0.1% TFA:Acetonitrile 50:50).
As depicted in FIG. 11, the expected peptide (GCLLNFLR) to be modified was immediately evident at MH+ of 1358.65. This is the mass to be expected when compound I-13, with an adduct mass of 423.17, is added to the peptide mass of 935.51. The peptide was also quite evident in the control sample as modified by Iodacetamide at MH+ of 992.56. […] There was no evidence of any other modified peptides.
To further verify the presence of the modified peptide with compound I-13, the peptide at MH+ of 1358.65 was subjected to PSD (MS/MS) analysis. A correlational analysis with the homo sapien database identified the correct peptide modified by I-13.
For tryptic digests the instrument was set in Reflectron mode with a pulsed extraction setting of 2200. Calibration was done using the Laser Biolabs Pep Mix standard (1046.54, 1296.69, 1672.92, 2093.09, 2465.20). […]

Chain of ErbB4 (Q15303 26-1308): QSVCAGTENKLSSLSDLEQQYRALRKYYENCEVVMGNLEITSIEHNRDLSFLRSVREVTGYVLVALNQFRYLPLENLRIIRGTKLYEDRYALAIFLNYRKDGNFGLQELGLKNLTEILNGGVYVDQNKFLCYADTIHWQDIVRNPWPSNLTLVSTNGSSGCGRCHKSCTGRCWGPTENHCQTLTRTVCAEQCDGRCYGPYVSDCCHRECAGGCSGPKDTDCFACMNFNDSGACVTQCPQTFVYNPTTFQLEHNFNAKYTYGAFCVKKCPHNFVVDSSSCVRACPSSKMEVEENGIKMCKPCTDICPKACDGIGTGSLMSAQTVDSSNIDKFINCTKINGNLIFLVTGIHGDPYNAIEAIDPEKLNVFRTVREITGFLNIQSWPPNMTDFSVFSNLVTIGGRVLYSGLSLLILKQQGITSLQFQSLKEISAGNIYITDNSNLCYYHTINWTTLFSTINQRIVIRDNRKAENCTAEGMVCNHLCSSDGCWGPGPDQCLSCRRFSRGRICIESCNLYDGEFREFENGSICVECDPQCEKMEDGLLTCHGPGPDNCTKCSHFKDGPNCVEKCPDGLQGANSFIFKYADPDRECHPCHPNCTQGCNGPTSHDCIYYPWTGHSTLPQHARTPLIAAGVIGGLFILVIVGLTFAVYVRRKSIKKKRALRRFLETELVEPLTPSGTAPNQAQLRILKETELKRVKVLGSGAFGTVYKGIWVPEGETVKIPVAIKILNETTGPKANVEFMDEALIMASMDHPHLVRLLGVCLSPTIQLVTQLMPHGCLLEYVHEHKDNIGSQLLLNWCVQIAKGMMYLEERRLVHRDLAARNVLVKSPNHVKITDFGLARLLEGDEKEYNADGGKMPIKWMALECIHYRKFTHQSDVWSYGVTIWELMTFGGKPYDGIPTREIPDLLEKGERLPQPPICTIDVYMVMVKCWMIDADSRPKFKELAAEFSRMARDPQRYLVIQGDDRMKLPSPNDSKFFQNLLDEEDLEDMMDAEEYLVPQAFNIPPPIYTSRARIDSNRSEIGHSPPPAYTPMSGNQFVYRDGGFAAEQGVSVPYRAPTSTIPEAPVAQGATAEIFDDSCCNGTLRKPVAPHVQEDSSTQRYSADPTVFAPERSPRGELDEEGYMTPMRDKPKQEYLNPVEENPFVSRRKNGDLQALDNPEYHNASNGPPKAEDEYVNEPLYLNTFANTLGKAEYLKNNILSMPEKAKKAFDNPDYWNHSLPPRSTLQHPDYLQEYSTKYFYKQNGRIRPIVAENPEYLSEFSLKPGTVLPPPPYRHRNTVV
T2 sequence (Q15303 718-985 limits assumed): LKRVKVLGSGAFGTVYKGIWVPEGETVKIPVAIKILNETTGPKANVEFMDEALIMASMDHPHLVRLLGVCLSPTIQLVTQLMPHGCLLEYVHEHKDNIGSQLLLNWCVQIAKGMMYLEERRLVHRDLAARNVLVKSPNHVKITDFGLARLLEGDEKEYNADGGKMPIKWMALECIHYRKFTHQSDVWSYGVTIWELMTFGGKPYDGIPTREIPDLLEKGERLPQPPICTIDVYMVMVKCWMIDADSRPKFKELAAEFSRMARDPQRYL
T1 sequence (P00533 696-1022): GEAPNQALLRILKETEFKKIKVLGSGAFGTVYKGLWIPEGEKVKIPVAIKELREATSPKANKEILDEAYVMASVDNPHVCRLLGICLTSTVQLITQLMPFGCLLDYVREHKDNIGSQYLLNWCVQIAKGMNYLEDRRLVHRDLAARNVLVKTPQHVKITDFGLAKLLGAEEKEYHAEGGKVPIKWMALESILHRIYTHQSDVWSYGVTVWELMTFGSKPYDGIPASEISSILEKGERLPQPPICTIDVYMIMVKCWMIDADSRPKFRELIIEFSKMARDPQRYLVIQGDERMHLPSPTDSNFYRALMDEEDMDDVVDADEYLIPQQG

As to `C=CC(=O)Nc1cccc(Nc2cc(Nc3cccc(Br)c3)ncn2)c1` [I-1, N-{3-[6-(3-bromophenylamino)-pyrimidin-4-ylamino]-phenyl}-2-propenamide], the inhibition (usually the relative decrease from the control value, in per cent) at 0.1 µM against ErbB4 (@ 100 nM) was 64%. For the same compound, at 1 µM the inhibition against ErbB4 (@ 1 μM) was 86%. Also, the “reactivity with EGFR wild type by intact mass” value on EGFR wild type is listed as “single site covalent modification”. The “enzyme inhibition after washout” value in assay [1] (A431 cells, 1 μM for 1 hr, washout, EGF stimulation) is recorded as “maintains enzyme inhibition”. In addition, the “type of binding to ErbB1 (irreversible / reversible)” value in assay [1] (washout experiment, FIG. 2) is “irreversibly binds to ErbB1”. In addition, the “modification of ErbB4 by intact mass” value on ErbB4 kinase domain is reported as “covalent modification of ErbB4”.

In the case of `C=CC(=O)Nc1cccc(Nc2cc(Nc3ccc(Oc4ccccc4)cc3)ncn2)c1` [I-13, N-{3-[6-(4-phenoxyphenylamino)-pyrimidin-4-ylamino]phenyl}-2 propenamide], the “modification of TEC peptide GCLLNFLR in tryptic digest” value at TEC kinase was “reaction was complete”.
